Where a SMILES comes first, the peptide text is derived from it. [ ]: non-standard residue; d: D form. The star is where a group is joined. dPhe(4-NHCONH2) = NC(=O)Nc1ccc(C[C@@H](N)C(=O)O)cc1; Dihydroorotyl(S) = O=C1C[C@@H](C(=O)*)NC(=O)N1; dPhe(4-Cl) = N[C@H](Cc1ccc(Cl)cc1)C(=O)O; Phe(4-NH2) = Nc1ccc(C[C@H](N)C(=O)O)cc1; d2Nal = N[C@H](Cc1ccc2ccccc2c1)C(=O)O; Lys(iPr) = CC(C)NCCCC[C@H](N)C(=O)O; NMeY = CN[C@@H](Cc1ccc(O)cc1)C(=O)O; d3Pal = N[C@H](Cc1cccnc1)C(=O)O
Assays:
[1] = Target plasma level calculated for pigs; type: in vivo, pig
Description: These very initial studies in this pig model are understood to represent proof of concept that formulations of the invention may be able to provide sustained release for up to three months, especially after IM administration, in a human model.

[2] = in vivo
testosterone = experiment: Plasma level needed to prevent testosterone breakthrough (rat); type: in vivo; conditions: between doses
Method: In the rat, the mean plasma concentration level of degarelix which is necessary to ensure there is no testosterone breakthrough between doses is 6 ng/mL, and this value was therefore selected as the target level for the present work. In other words, if the mean plasma concentration of degarelix is 6 ng/mL or greater after administration of a given formula, this is a good indicator that the formulation would be effective (for the duration of the study).

[3] = human, in vivo; cited from earlier work

Structure (SMILES)	target level of mean degarelix concentration [1] [ng/mL]	efficacy and tolerability [2]	mean plasma concentration necessary to ensure no testosterone breakthrough (testosterone) [ng/mL]	allergic reaction risk [3]
CC(=O)N[C@H](Cc1ccc2ccccc2c1)C(=O)N[C@H](Cc1ccc(Cl)cc1)C(=O)N[C@H](Cc1cccnc1)C(=O)N[C@@H](CO)C(=O)N[C@@H](Cc1ccc(NC(=O)[C@@H]2CC(=O)NC(=O)N2)cc1)C(=O)N[C@H](Cc1ccc(NC(N)=O)cc1)C(=O)N[C@@H](CC(C)C)C(=O)N[C@@H](CCCCNC(C)C)C(=O)N1CCC[C@H]1C(=O)N[C@H](C)C(N)=O [degarelix, D-Alaninamide, N-acetyl-3-(2-naphthalenyl)-D-alanyl-4-chloro-D-phenylalanyl-3-(3-pyridinyl)-D-alanyl-L-seryl-4-[[[(4S)-hexahydro-2,6-dioxo-4-pyrimidinyl]carbonyl]amino]-L-phenylalanyl-4-[(aminocarbonyl)amino]-D-phenylalanyl-L leucyl-N6-(1-methylethyl)-L-lysyl-L-prolyl] (Ac-[d2Nal][dPhe(4-Cl)][d3Pal]S[Phe(4-NH2)](Dihydroorotyl(S))[dPhe(4-NHCONH2)]L[Lys(iPr)]P[dA]-NH2)	8	effective and well-tolerated without evidence of systemic allergic reactions	6	–
CC(=O)N[C@H](Cc1ccc2ccccc2c1)C(=O)N[C@H](Cc1ccc(Cl)cc1)C(=O)N[C@H](Cc1cccnc1)C(=O)N[C@@H](CO)C(=O)N(C)[C@@H](Cc1ccc(O)cc1)C(=O)N[C@H](CC(N)=O)C(=O)N[C@@H](CC(C)C)C(=O)N[C@@H](CCCCNC(C)C)C(=O)N1CCC[C@H]1C(=O)N[C@H](C)C(N)=O [Abarelix] (Ac-[d2Nal][dPhe(4-Cl)][d3Pal]S[NMeY][dN]L[Lys(iPr)]P[dA]-NH2)	–	–	–	risk of serious allergic reactions, including anaphylaxis with hypotension and syncope
